Measured values published in US11020400B2, “Tetrahydropyranyl amino-pyrrolopyrimidinone and methods of use thereof” (ArQule, Inc., priority 2015, dated 2021).

Legend:
[1] = system: Rec-1 cells; test: Anti-Proliferation Assay (MTS), Rec-1 cells; format: cell-based; conditions: Homo sapiens, Rec1, treated for 72 hours, MTS cell survival
Experimental: (§1) Cell survival is determined by a MTS assay. Briefly, cells (i.e., TMD-8 cells or Rec-1 cells) are plated in a 96-well plate, cultured in complete growth medium, and then treated with various drugs and drug combinations. MTS/PMS is added and incubated, followed by assessment of cell viability using the microplate reader. Data is normalized to untreated controls and analyzed with Microsoft Excel.
(§2) Cell survival was determined by the MTS assay. Briefly, cells (i.e., TMD-8 cells or Rec-1 cells) were plated in a 96-well plate at 2,000-10,000 cells per well, cultured for 24 hours in complete growth medium, and then treated with various drugs and drug combinations for 72 hours. MTS/PMS was added and incubated for 4 hour, followed by assessment of cell viability using the microplate reader (absorbance at 490 nm). Data were normalized to untreated controls and analyzed with Microsoft Excel.

[2] = system: TMD-8 cells; test: Anti-Proliferation Assay (MTS), TMD-8 cells; format: cell-based; conditions: Homo sapiens, TMD8, treated for 72 hours, MTS cell survival
Experimental: as §1, §2

O=C(c1ccc(Oc2ccccc2)cc1Cl)c1c[nH]c2ncnc(N[C@@H]3CC[C@@H](CO)OC3)c12 [Compound (I), (2-chloro-4-phenoxyphenyl)(4-(((3R,6S)-6-(hydroxymethyl)tetrahydro-2H-pyran-3-yl)amino)-7H-pyrrolo[2,3-d]pyrimidin-5-yl)methanone]
IC50 [1]: 0.18 ± 0.07 µM | IC50 [2]: 0.13 ± 0.06 µM
